In PubChem BioAssay AID248 (DTP/NCI, 2004):
“And” between values parts separate entries of the source, which are not always exact repeats. Equal values may be shown once. Toxic doses and inconclusive results are not listed.

Tested on: L1210 leukemia ip in BDF1 mice, survival T/C
Assay: NCI In Vivo Anticancer Drug Screen. Data for tumor model L1210 Leukemia (intraperitoneal) in B6D2F1 (BDF1) mice
Conditions: endpoint: mean survival time, higher = longer survival
How it was run: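 Tumor was transplanted into mice, which were then dosed with test compound or vehicle alone. Survival was recorded for each group, and the treated figure was expressed relative to the control figure.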

[1] = dose: 100.0 mg/kg/injection, schedule: Q01DX009 (ip), vehicle: saline with Tween-80
[2] = dose: 200.0 mg/kg/injection, schedule: Q01DX009 (ip), vehicle: saline with Tween-80
[3] = dose: 400.0 mg/kg/injection, schedule: Q01DX009 (ip), vehicle: saline with Tween-80
[4] = dose: 200.0 mg/kg/injection, schedule: Q01DX001 (ip), vehicle: carboxymethylcellulose (CMC)
[5] = dose: 400.0 mg/kg/injection, schedule: Q01DX001 (ip), vehicle: carboxymethylcellulose (CMC)
[6] = dose: 100.0 mg/kg/injection, schedule: Q01DX009 (ip), vehicle: Klucel (hydroxypropylcellulose) (HPC)
[7] = dose: 400.0 mg/kg/injection, schedule: Q01DX009 (ip), vehicle: Klucel (hydroxypropylcellulose) (HPC)

In the case of `CCC1(C(C)=O)CN2CCc3cc(OC)c(OC)cc3C2N2CCc3ccc(OC)c(OC)c3C21` (stereo not drawn), the T/C (dose: 100.0 mg/kg/injection, schedule: Q04DX003 (ip), vehicle: carboxymethylcellulose (CMC)) is reported as 95 % of control, the T/C (dose: 200.0 mg/kg/injection, schedule: Q04DX003 (ip), vehicle: carboxymethylcellulose (CMC)) is reported as 98 % of control and the T/C (dose: 400.0 mg/kg/injection, schedule: Q04DX003 (ip), vehicle: carboxymethylcellulose (CMC)) is reported as 95 % of control.

`CCOC(=O)CNC(=O)NCCc1ccccc1` was tested, and the T/C [1] was 112 % of control, the T/C [2] was 96 % of control and the T/C [3] was 87 % of control.

For `CCNc1nnc(N=Nc2ccccc2)s1`, the T/C (dose: 12.5 mg/kg/injection, schedule: Q01DX009 (ip), vehicle: saline with Tween-80) was 97 % of control, the T/C (dose: 25.0 mg/kg/injection, schedule: Q01DX009 (ip), vehicle: saline with Tween-80) was 102 % of control and 92 % of control and the T/C (dose: 50.0 mg/kg/injection, schedule: Q01DX009 (ip), vehicle: saline with Tween-80) was 86 % of control. For the same compound, the T/C [1] was 91 % of control, the T/C (dose: 100.0 mg/kg/injection, schedule: Q04DX002 (ip), vehicle: saline with Tween-80) was 170 % of control and the T/C (dose: 200.0 mg/kg/injection, schedule: Q04DX002 (ip), vehicle: saline with Tween-80) was 98 % of control. For the same compound, the T/C [3] was 91 % of control and the T/C (dose: 400.0 mg/kg/injection, schedule: Q04DX002 (ip), vehicle: saline with Tween-80) was 98 % of control.

For `CCN(CC)C(=O)CS(=O)(=O)c1ccc(N)cc1`, the T/C (dose: 100.0 mg/kg/injection, schedule: Q04DX003 (ip), vehicle: saline with Tween-80) was 102 % of control, the T/C (dose: 200.0 mg/kg/injection, schedule: Q04DX003 (ip), vehicle: saline with Tween-80) was 97 % of control and the T/C (dose: 400.0 mg/kg/injection, schedule: Q04DX003 (ip), vehicle: saline with Tween-80) was 100 % of control.

With `CNC(=S)n1ncnc1NC=O` the T/C (dose: 100.0 mg/kg/injection, schedule: Q04DX003 (ip), vehicle: acetone) was 98 % of control.

In the case of `O=C(OCc1ccccc1CN1CCOCC1)c1ccc(Cl)cc1`, the T/C (dose: 100.0 mg/kg/injection, schedule: Q04DX002 (ip), vehicle: Klucel (hydroxypropylcellulose) (HPC)) is reported as 103 % of control, the T/C (dose: 200.0 mg/kg/injection, schedule: Q04DX002 (ip), vehicle: Klucel (hydroxypropylcellulose) (HPC)) is reported as 106 % of control and the T/C (dose: 400.0 mg/kg/injection, schedule: Q04DX002 (ip), vehicle: Klucel (hydroxypropylcellulose) (HPC)) is reported as 100 % of control.

`CC(C)CCc1nc2c(c(=O)n(C)c(=O)n2C)n1C` was tested, and the T/C (dose: 50.0 mg/kg/injection, schedule: Q01DX001 (ip), vehicle: carboxymethylcellulose (CMC)) was 116 % of control, the T/C (dose: 100.0 mg/kg/injection, schedule: Q01DX001 (ip), vehicle: carboxymethylcellulose (CMC)) was 103 % of control and the T/C [4] was 103 % of control. The T/C [5] was 103 % of control.

In the case of `Cc1cc2nc3[nH]c(=O)c4c(n3c2cc1C)CCC4`, the T/C (dose: 50.0 mg/kg/injection, schedule: Q04DX002 (ip), vehicle: saline) is reported as 87 % of control, the T/C (dose: 100.0 mg/kg/injection, schedule: Q04DX002 (ip), vehicle: saline) is reported as 108 % of control and the T/C (dose: 200.0 mg/kg/injection, schedule: Q04DX002 (ip), vehicle: saline) is reported as 112 % of control.

`O=C(O)CCCc1ccc([N+](=O)[O-])cc1Cl` was tested, and the T/C [1] was 103 % of control and the T/C [2] was 105 % of control.

For `O=C(/C=C/c1ccc(Cl)c(Cl)c1)c1ccccc1[N+](=O)[O-]`, the T/C [6] was 103 % of control, the T/C (dose: 200.0 mg/kg/injection, schedule: Q01DX009 (ip), vehicle: Klucel (hydroxypropylcellulose) (HPC)) was 97 % of control and the T/C [7] was 92 % of control.

For `CC1(C)C/C(=N/O)C/C(=N\O)C1`, the T/C (dose: 25.0 mg/kg/injection, schedule: Q04DX003 (ip), vehicle: Klucel (hydroxypropylcellulose) (HPC)) was 95 % of control and the T/C (dose: 50.0 mg/kg/injection, schedule: Q04DX003 (ip), vehicle: Klucel (hydroxypropylcellulose) (HPC)) was 96 % of control.

In the case of `CC(=O)C1CCC2C3CCC4(C)CC(=O)CCC4(C)C3C3OC3C12C` (stereo not drawn), the T/C (dose: 100.0 mg/kg/injection, schedule: Q04DX003 (sc), vehicle: steriod suspending solution) is reported as 98 % of control, the T/C (dose: 200.0 mg/kg/injection, schedule: Q04DX003 (sc), vehicle: steriod suspending solution) is reported as 96 % of control and the T/C (dose: 400.0 mg/kg/injection, schedule: Q04DX003 (sc), vehicle: steriod suspending solution) is reported as 102 % of control.

In the case of `CCCCCCCCCCC(S(=O)(=O)CC)S(=O)(=O)CC`, the T/C (dose: 100.0 mg/kg/injection, schedule: Q01DX001 (ip), vehicle: Klucel (hydroxypropylcellulose) (HPC)) is reported as 97 % of control and the T/C (dose: 200.0 mg/kg/injection, schedule: Q01DX001 (ip), vehicle: Klucel (hydroxypropylcellulose) (HPC)) is reported as 94 % of control.

With `COc1ccc(-c2oc3ccccc3c(=O)c2O)cc1` the T/C (dose: 50.0 mg/kg/injection, schedule: Q01DX001 (ip), vehicle: saline) was 104 % of control, the T/C (dose: 100.0 mg/kg/injection, schedule: Q01DX001 (ip), vehicle: saline) was 101 % of control and the T/C (dose: 200.0 mg/kg/injection, schedule: Q01DX001 (ip), vehicle: saline) was 106 % of control. The T/C (dose: 400.0 mg/kg/injection, schedule: Q01DX001 (ip), vehicle: saline) was 98 % of control.

`NC(Cc1ccc(OC2CCCC2)c(N(CCCl)CCCl)c1)C(=O)O` (stereo not drawn) was tested, and the T/C (dose: 0.6 mg/kg/injection, schedule: Q01DX009 (ip), vehicle: carboxymethylcellulose (CMC)) was 122 % of control, the T/C (dose: 3.8 mg/kg/injection, schedule: Q01DX009 (ip), vehicle: saline) was 102 % of control and the T/C (dose: 4.4 mg/kg/injection, schedule: Q01DX001 (ip), vehicle: carboxymethylcellulose (CMC)) was 107 % of control. The T/C (dose: 5.7 mg/kg/injection, schedule: Q01DX009 (ip), vehicle: saline) was 103 % of control, the T/C (dose: 6.6 mg/kg/injection, schedule: Q01DX001 (ip), vehicle: carboxymethylcellulose (CMC)) was 111 % of control and the T/C (dose: 8.5 mg/kg/injection, schedule: Q01DX001 (ip), vehicle: carboxymethylcellulose (CMC)) was 111 % of control. For the same compound, the T/C (dose: 8.5 mg/kg/injection, schedule: Q01DX009 (ip), vehicle: carboxymethylcellulose (CMC)) was 155 % of control, the T/C (dose: 8.5 mg/kg/injection, schedule: Q01DX009 (ip), vehicle: saline) was 110 % of control and the T/C (dose: 8.8 mg/kg/injection, schedule: Q01DX009 (ip), vehicle: carboxymethylcellulose (CMC)) was 115 % of control. For the same compound, the T/C (dose: 10.0 mg/kg/injection, schedule: Q01DX001 (ip), vehicle: carboxymethylcellulose (CMC)) was 120 % of control, the T/C (dose: 13.0 mg/kg/injection, schedule: Q01DX001 (ip), vehicle: carboxymethylcellulose (CMC)) was 114 % of control and the T/C (dose: 13.0 mg/kg/injection, schedule: Q01DX009 (ip), vehicle: carboxymethylcellulose (CMC)) was 152 % of control. For the same compound, the T/C (dose: 13.3 mg/kg/injection, schedule: Q01DX009 (ip), vehicle: carboxymethylcellulose (CMC)) was 88 % of control, the T/C (dose: 20.0 mg/kg/injection, schedule: Q01DX009 (ip), vehicle: carboxymethylcellulose (CMC)) was 215 % of control and the T/C (dose: 20.0 mg/kg/injection, schedule: Q01DX009 (ip), vehicle: saline) was 119 % of control. For the same compound, the T/C (dose: 30.0 mg/kg/injection, schedule: Q01DX001 (ip), vehicle: carboxymethylcellulose (CMC)) was 202 % of control and the T/C (dose: 30.0 mg/kg/injection, schedule: Q01DX009 (ip), vehicle: saline) was 98 % of control.

For `C=C(C)Cc1c(C)c(C)c(OS(=O)(=O)c2ccc(Br)cc2)c(C)c1C`, the T/C (dose: 50.0 mg/kg/injection, schedule: Q04DX003 (ip), vehicle: gum acacia) was 89 % of control, the T/C (dose: 100.0 mg/kg/injection, schedule: Q04DX003 (ip), vehicle: gum acacia) was 89 % of control and the T/C (dose: 200.0 mg/kg/injection, schedule: Q04DX003 (ip), vehicle: gum acacia) was 91 % of control.

In the case of `Nc1nc2c(nnn2C2OC(COP(=O)(O)O)C(O)C2O)c(=O)[nH]1` (stereo not drawn), the T/C (dose: 2.5 mg/kg/injection, schedule: Q01DX Z (ip), vehicle: other) is reported as 89 % of control, the T/C (dose: 5.0 mg/kg/injection, schedule: Q01DX Z (ip), vehicle: other) is reported as 97 % of control and the T/C (dose: 10.0 mg/kg/injection, schedule: Q01DX Z (ip), vehicle: other) is reported as 102 % of control. The T/C (dose: 20.0 mg/kg/injection, schedule: Q01DX Z (ip), vehicle: other) was 118 % of control, the T/C (dose: 30.0 mg/kg/injection, schedule: Q01DX Z (ip), vehicle: other) was 120 % of control and the T/C (dose: 50.0 mg/kg/injection, schedule: Q01DX Z (ip), vehicle: other) was 118 % of control.

With `O=c1[nH]cnc2ncnn12` the T/C (dose: 100.0 mg/kg/injection, schedule: Q01DX001 (ip), vehicle: alkali diluted with saline) was 104 % of control, the T/C (dose: 200.0 mg/kg/injection, schedule: Q01DX001 (ip), vehicle: alkali diluted with saline) was 109 % of control and the T/C (dose: 400.0 mg/kg/injection, schedule: Q01DX001 (ip), vehicle: alkali diluted with saline) was 104 % of control.

`O=C(O)C(C(=O)c1cccc([N+](=O)[O-])c1)C(=O)c1cccc([N+](=O)[O-])c1` was tested, and the T/C [4] was 100 % of control and the T/C [5] was 94 % of control.

In the case of `O=C(CNC(=O)NCc1ccco1)N/N=C/c1ccc(Cl)c(Cl)c1`, the T/C (dose: 50.0 mg/kg/injection, schedule: Q01DX009 (ip), vehicle: Klucel (hydroxypropylcellulose) (HPC)) is reported as 89 % of control, the T/C [6] is reported as 86 % of control and 88 % of control and the T/C [7] is reported as 90 % of control.
